Test results published in patent US8653003B2, “Pyrazol-4-yl carboxamide derivatives as microbiocides” (Syngenta Participations AG, priority 2011, dated 2014).

Assays:
[1] = test system: Mycosphaerella arachidis (Cercospora arachidicola [anamorph]); test: Action against Mycosphaerella arachidis (early leaf spot of groundnut) - fungal growth assay; format: cell-based; conditions: 0.002% active ingredient, PDB broth, 24° C., photometric after 6-7 days
Method: (§1) Conidia of the fungus from cryogenic storage were directly mixed into nutrient broth (Pdb potato dextrose broth). After placing a (DMSO) solution of the test compounds (0.002% active ingredient) into a microtiter plate (96-well format) the nutrient broth containing the fungal spores was added. The test plates were incubated at 24° C. and the inhibition of growth was measured photometrically after 6-7 days. The activity of a compound was expressed as fungal growth inhibition (0=no growth inhibition, ratings of 80% to 99% mean good to very good inhibition, 100%=complete inhibition).

Pyrenophora teres = test: Action against Pyrenophora teres (net blotch) on barley leaf segments; format: in vivo; conditions: foliar, 96 h, 0.02% active ingredient sprayed on barley leaf segments, assessed 4 days after inoculation, read-out: preventive fungicidal activity (inhibition)
Method: (§2) Barley leaf segments were placed on agar in multiwell plates (24-well format) and sprayed with test solutions (0.02% active ingredient). After drying, the leaf disks were inoculated with a spore suspension of the fungus. After appropriate incubation the activity of a compound was assessed 4 days after inoculation as preventive fungicidal activity.

Botrytis cinerea = test: Action against Botrytis cinerea - fungal growth assay; format: cell-based; conditions: 0.002% active ingredient, PDB broth, 24° C., photometric after 3-4 days
Method: as §1, with “storage was” for “storage were”, “broth (PDB” for “broth (Pdb”, “after 3-4” for “after 6-7”

Puccinia recondita [2] = test: Protective action against Puccinia recondita (brown rust) on wheat leaf segments; format: in vivo; conditions: foliar, 192 h, 0.02% active ingredient sprayed on wheat leaf segments, assessed 8 days after inoculation, read-out: preventive fungicidal activity (inhibition)
Method: as §2, with “Wheat leaf” for “Barley leaf”, “assessed 8” for “assessed 4”

Puccinia recondita [3] = test: Curative action against Puccinia recondita (brown rust) on wheat leaf segments; format: in vivo; conditions: foliar, 0.02% active ingredient sprayed one day after inoculation, assessed 8 days after inoculation, read-out: curative fungicidal activity (inhibition)
Method: Wheat leaf segments were placed on agar in multiwell plates (24-well format) and inoculated with a spore suspension of the fungus. One day after inoculation the leaf segments were sprayed with test solutions (0.02% active ingredient). After appropriate incubation the activity of a compound was assessed 8 days after inoculation as curative fungicidal activity.

Septoria tritici = test: Action against Septoria tritici - fungal growth assay; format: cell-based; conditions: Zymoseptoria tritici; 0.002% active ingredient, PDB broth, 24° C., photometric after 72 hrs
Method: as §1, with “(PDB” for “(Pdb”, “determined” for “measured”, “72 hrs.” for “6-7 days.”

[4] = test system: Erysiphe graminis f. sp. tritici; test: Action against Erysiphe graminis f. sp. tritici (wheat powdery mildew), wheat leaf segments; format: in vivo; conditions: Blumeria graminis, foliar, 168 h; 0.02% active ingredient sprayed on wheat leaf segments, assessed 7 days after inoculation; read-out: preventive fungicidal activity (inhibition)
Method: as §2, with “Wheat leaf” for “Barley leaf”, “assessed 7” for “assessed 4”

For CON(C(=O)c1cn(C)nc1C(F)F)C1CCCc2ccccc21 (stereo not shown) [Compound 1.001], which inhibition at 0.002 % strength [1] is on record?
Its inhibition at 0.002 % strength is at least 80%.

What about the inhibition at 0.02 % strength (Pyrenophora teres) of the same compound?
Its inhibition at 0.02 % strength is at least 80%.

And the inhibition at 0.002 % strength (Botrytis cinerea)?
Its inhibition at 0.002 % strength is at least 80%.

And the inhibition at 0.02 % strength (Puccinia recondita [2])?
The inhibition at 0.02 % strength was at least 80%.

And the melting point?
The melting point was 91 to 95 °C.

What about the inhibition at 0.02 % strength (Puccinia recondita [3]) of the same compound?
The inhibition at 0.02 % strength was at least 80%.

And the inhibition at 0.002 % strength (Septoria tritici)?
The inhibition at 0.002 % strength was at least 80%.

What about the inhibition at 0.02 % strength [4] of the same compound?
Its inhibition at 0.02 % strength is at least 80%.

Which results are given for CON(C(=O)c1cn(C)nc1C(F)F)C1CCCc2ccc(Cl)cc21 (stereo not shown) [Compound 1.003, 3-difluoromethyl-1-methyl-1H-pyrazole-4-carboxylic acid (7-chloro-1,2,3,4-tetrahydro-naphthalen-1-yl)-methoxy-amide]?
inhibition at 0.002 % strength [1]: ≥ 80%; inhibition at 0.02 % strength (Pyrenophora teres): ≥ 80%; inhibition at 0.02 % strength (Puccinia recondita [2]): ≥ 80%; inhibition at 0.02 % strength (Puccinia recondita [3]): ≥ 80%; inhibition at 0.002 % strength (Septoria tritici): ≥ 80%; inhibition at 0.02 % strength [4]: ≥ 80%

For CON(C(=O)c1cn(C)nc1C(F)F)C1CCCCc2ccc(I)cc21 (stereo not shown) [Compound 1.062, 3-difluoromethyl-1-methyl-1H-pyrazole-4-carboxylic acid (3-iodo-6,7,8,9-tetrahydro-5-H-benzocyclohepten-5-yl)-methoxy-amide], which inhibition at 0.002 % strength [1] is on record?
The inhibition at 0.002 % strength was at least 80%.

And the inhibition at 0.02 % strength (Puccinia recondita [2])?
The inhibition at 0.02 % strength was at least 80%.

What about the inhibition at 0.02 % strength (Puccinia recondita [3]) of the same compound?
The inhibition at 0.02 % strength was at least 80%.

What about the inhibition at 0.002 % strength (Septoria tritici) of the same compound?
The inhibition at 0.002 % strength was at least 80%.

With CON(C(=O)c1cn(C)nc1C(F)F)C1c2ccccc2CCCC1F (stereo not shown) [Compound 1.065, 3-difluoromethyl-1-methyl-1H-pyrazole-4-carboxylic acid (6-fluoro-6,7,8,9-tetrahydro-5-H-benzocyclohepten-5-yl)-methoxy-amide] as the compound, how does the inhibition at 0.002 % strength [1] read?
Its inhibition at 0.002 % strength is at least 80%.

What about the inhibition at 0.02 % strength (Pyrenophora teres) of the same compound?
The inhibition at 0.02 % strength was at least 80%.

And the inhibition at 0.002 % strength (Botrytis cinerea)?
The inhibition at 0.002 % strength was at least 80%.

What about the inhibition at 0.02 % strength (Puccinia recondita [2]) of the same compound?
The inhibition at 0.02 % strength was at least 80%.

And the inhibition at 0.02 % strength (Puccinia recondita [3])?
The inhibition at 0.02 % strength was at least 80%.

What about the inhibition at 0.002 % strength (Septoria tritici) of the same compound?
The inhibition at 0.002 % strength was at least 80%.

And the inhibition at 0.02 % strength [4]?
The inhibition at 0.02 % strength was at least 80%.
